Patent US12064426B2, “Selective inhibitors of ROCK1 and ROCK2 protein kinases and uses thereof” (GENOSCO Inc., priority 2021, dated 2024)

Key:
[1] = molecular target: T1, Recombinant ROCK2 (amino acids 5-554) (Homo sapiens, UniProt O75116); assay: ROCK inhibition assay, LANCE Ultra TR-FRET kinase assay (ROCK2); type: biochemical; details: 4 μM ATP, 50 nM ULight-CREBtide substrate
T1 construct: ROCK2 (amino acids 5-554); by word order, ROCK2 from SignalChem
Experimental: (§1) Kinase IC50 was determined through an in vitro assay based on LANCE Ultra TR-FRET (Time-Resolved Fluorescence Resonance Energy Transfer) homogeneous technologies method (Perkin Elmer). Recombinant ROCK1 (amino acids 1-477) and ROCK2 (amino acids 5-554) proteins were purchased from Carna Biosciences and SignalChem. Compound activities were measured by Envision and IC50s were calculated. The assays were performed in white LUMITRAC™ 200 96 well half-area microplates from Greiner Bio-One. The kinase reaction buffer consisted of 50 mM HEPES pH 7.5, 1 mM EGTA, 10 mM MgCl2, 2 mM DTT and 0.01% Tween-20. Kinases were incubated with 50 nM (ULight-CREBtide) substrate in the presence of 1 (ROCK1) or 4 (ROCK2) μM ATP. The kinase reaction was carried out for 1 hour before addition of a stopping buffer to a final of 10 mM EDTA and 0.6 nM of LANCE Ultra Europium anti-phospho-CREB (Ser133) antibody (PerkinElmer TRF0200) in LANCE detection buffer. All assay incubations were performed at room temperature, and the microplates were sealed with polyester film during that time. The reaction was incubated for 1 hour, and the signal was read in Envision in TR-FRET mode (excitation at 320 nm and emission at 615/665 nm).
(§2) As used herein, a way to describe potency of inhibitory activity (nM) is a value of inhibitory activity at 50% (IC50).

[2] = molecular target: T2, Recombinant ROCK1 (amino acids 1-477) (Homo sapiens, UniProt Q13464); assay: ROCK inhibition assay, LANCE Ultra TR-FRET kinase assay (ROCK1); type: biochemical; details: 1 μM ATP, 50 nM ULight-CREBtide substrate
T2 construct: Recombinant ROCK1 (amino acids 1-477); by word order, ROCK1 from Carna Biosciences
T2 sequence (Q13464 1-477): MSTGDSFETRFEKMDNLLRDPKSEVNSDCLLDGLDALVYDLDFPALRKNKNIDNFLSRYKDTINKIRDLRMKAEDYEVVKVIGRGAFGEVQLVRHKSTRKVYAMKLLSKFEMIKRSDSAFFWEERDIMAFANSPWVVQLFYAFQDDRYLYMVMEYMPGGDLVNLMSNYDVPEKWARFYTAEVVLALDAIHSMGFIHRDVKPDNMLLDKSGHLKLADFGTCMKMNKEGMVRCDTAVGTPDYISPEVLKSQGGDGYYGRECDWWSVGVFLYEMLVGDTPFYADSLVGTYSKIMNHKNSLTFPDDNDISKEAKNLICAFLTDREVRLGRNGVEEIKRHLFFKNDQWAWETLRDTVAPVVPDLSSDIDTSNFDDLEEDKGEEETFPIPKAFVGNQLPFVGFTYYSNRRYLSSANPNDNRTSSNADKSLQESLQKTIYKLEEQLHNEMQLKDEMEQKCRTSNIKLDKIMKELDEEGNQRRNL
Experimental: as §1, §2

T1 sequence (O75116 5-554): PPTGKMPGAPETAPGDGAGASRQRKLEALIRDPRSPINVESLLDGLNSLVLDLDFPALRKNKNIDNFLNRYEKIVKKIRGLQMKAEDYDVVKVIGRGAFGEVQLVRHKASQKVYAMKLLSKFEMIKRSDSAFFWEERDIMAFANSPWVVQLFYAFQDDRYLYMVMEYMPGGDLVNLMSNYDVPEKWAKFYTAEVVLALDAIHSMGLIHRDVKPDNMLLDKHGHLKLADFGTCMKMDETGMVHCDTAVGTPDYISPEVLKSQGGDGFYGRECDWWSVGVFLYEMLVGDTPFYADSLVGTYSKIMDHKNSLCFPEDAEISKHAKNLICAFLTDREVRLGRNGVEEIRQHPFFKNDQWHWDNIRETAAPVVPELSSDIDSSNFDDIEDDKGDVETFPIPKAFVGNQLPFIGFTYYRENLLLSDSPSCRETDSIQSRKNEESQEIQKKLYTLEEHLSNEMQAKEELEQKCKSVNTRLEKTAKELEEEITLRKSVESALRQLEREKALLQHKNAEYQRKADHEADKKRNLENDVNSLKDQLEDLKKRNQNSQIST

Compound | IC50 [1] [nM] | IC50 [2] [nM]
Cn1nccc1-c1ccc2c(=O)n(Cc3cccc(C(=O)N[C@H]4CC[C@H](O)CC4)c3)ccc2c1 [Compound 115] | 10 to 100 | 101 to 500
Cn1nccc1-c1ccc2c(=O)n(Cc3cccc(C(=O)N[C@H]4CC[C@@H](O)CC4)c3)ccc2c1 [Compound 116] | 10 to 100 | 101 to 500
Cn1nccc1-c1ccc2c(=O)n(Cc3cccc(C(=O)NCc4ccnc(F)c4)c3)ccc2c1 [Compound 117] | 10 to 100 | 101 to 500
COCCNC(=O)c1cccc(Cn2ccc3cc(-c4ccnn4C)ccc3c2=O)c1 [Compound 120] | 100 to 500 | 101 to 500
Cn1nccc1-c1ccc2c(=O)n(Cc3cccc(C(=O)Nc4nc5c(s4)CCNC5)c3)ccc2c1 [Compound 122] | < 10 | < 10
NS(=O)(=O)c1ccc(NC(=O)c2cc(F)cc(Cn3ccc4cc(-c5c[nH]nc5C(F)(F)F)ccc4c3=O)c2)cc1 [Compound 127] | 10 to 100 | 101 to 500
O=C(NCc1ccc(F)nc1)c1cc(F)cc(Cn2ccc3cc(-c4c[nH]nc4C(F)(F)F)ccc3c2=O)c1 [Compound 129] | < 10 | 101 to 500
O=C(NC1CCNCC1)c1cc(F)cc(Cn2ccc3cc(-c4c[nH]nc4C(F)(F)F)ccc3c2=O)c1 [Compound 131] | < 10 | < 10
CN1CCC(NC(=O)c2cc(F)cc(Cn3ccc4cc(-c5c[nH]nc5C(F)(F)F)ccc4c3=O)c2)CC1 [Compound 132] | < 10 | < 10
O=C(NC1CC1)c1cc(F)cc(Cn2ccc3cc(-c4c[nH]nc4C(F)(F)F)ccc3c2=O)c1 [Compound 133] | 10 to 100 | 101 to 500
CN1CCC(CNC(=O)c2cc(F)cc(Cn3ccc4cc(-c5c[nH]nc5C(F)(F)F)ccc4c3=O)c2)CC1 [Compound 134] | < 10 | 11 to 100
O=C(NCC1CCOCC1)c1cc(F)cc(Cn2ccc3cc(-c4c[nH]nc4C(F)(F)F)ccc3c2=O)c1 [Compound 135] | 10 to 100 | 101 to 500
O=C(NCC1COC1)c1cc(F)cc(Cn2ccc3cc(-c4c[nH]nc4C(F)(F)F)ccc3c2=O)c1 [Compound 136] | < 10 | 11 to 100
Cc1nocc1-c1ccc2c(=O)n(Cc3cc(F)cc(C(=O)N[C@H]4C[C@@H](O)C4)c3)ccc2c1 [Compound 137] | 10 to 100 | 101 to 500
CO[C@H]1CC[C@H](NC(=O)c2cc(F)cc(Cn3ccc4cc(-c5conc5C)ccc4c3=O)c2)CC1 [Compound 141] | 100 to 500 | > 501
Cc1nocc1-c1ccc2c(=O)n(Cc3cc(F)cc(C(=O)NCc4ccc(F)nc4)c3)ccc2c1 [Compound 147] | < 10 | 11 to 100
Cc1nocc1-c1ccc2c(=O)n(Cc3cc(F)cc(C(=O)NC4CCOCC4)c3)ccc2c1 [Compound 148] | 10 to 100 | 101 to 500
Cc1nocc1-c1ccc2c(=O)n(Cc3cc(F)cc(C(=O)NCC4CCNCC4)c3)ccc2c1 [Compound 150] | < 10 | 11 to 100
Cc1nocc1-c1ccc2c(=O)n(Cc3cc(F)cc(C(=O)NCC4CCN(C5CC5)CC4)c3)ccc2c1 [Compound 151] | < 10 | 11 to 100
Cc1nocc1-c1ccc2c(=O)n(Cc3cc(F)cc(C(=O)NCC4CCN(C(C)C)CC4)c3)ccc2c1 [Compound 152] | 10 to 100 | 101 to 500
Cc1nocc1-c1ccc2c(=O)n(Cc3cc(F)cc(C(=O)Nc4nc5c(s4)CCN(C)C5)c3)ccc2c1 [Compound 158] | < 10 | 11 to 100
Cc1nocc1-c1ccc2c(=O)n(Cc3cc(F)cc(C(=O)Nc4nc5c(s4)CCN(C(C)C)C5)c3)ccc2c1 [Compound 159] | < 10 | 11 to 100
Cc1nocc1-c1ccc2c(=O)n(Cc3cc(F)cc(C(=O)Nc4ccc5c(c4)CNCC5)c3)ccc2c1 [Compound 160] | < 10 | 11 to 100

The remaining lines, values ahead:

IC50 [1] [nM] | IC50 [2] [nM] | Compound
< 10 | 11 to 100 | Cn1nccc1-c1ccc2c(=O)n(Cc3cccc(C(=O)NCc4ccc(F)nc4)c3)ccc2c1 [Compound 114]
10 to 100 | 101 to 500 | CC(C)N1CCC(NC(=O)c2cccc(Cn3ccc4cc(-c5ccnn5C)ccc4c3=O)c2)CC1 [Compound 118]
< 10 | 11 to 100 | CN(C)CCNC(=O)c1cccc(Cn2ccc3cc(-c4ccnn4C)ccc3c2=O)c1 [Compound 119]
< 10 | 11 to 100 | CN1CCc2sc(NC(=O)c3cccc(Cn4ccc5cc(-c6ccnn6C)ccc5c4=O)c3)nc2C1 [Compound 121]
< 10 | < 10 | CN1CCc2cc(NC(=O)c3cccc(Cn4ccc5cc(-c6ccnn6C)ccc5c4=O)c3)ccc2C1 [Compound 124]
< 10 | < 10 | Cn1nccc1-c1ccc2c(=O)n(Cc3cccc(C(=O)Nc4ccc5c(c4)CNCC5)c3)ccc2c1 [Compound 125]
< 10 | 11 to 100 | Cn1nccc1-c1ccc2c(=O)n(Cc3cccc(C(=O)Nc4ccc5c(c4)CN(C4CC4)CC5)c3)ccc2c1 [Compound 126]
< 10 | 11 to 100 | Cn1ccc(NC(=O)c2cc(F)cc(Cn3ccc4cc(-c5cn[nH]c5C(F)(F)F)ccc4c3=O)c2)n1 [Compound 128]
10 to 100 | 11 to 100 | O=C(NC1CCOCC1)c1cc(F)cc(Cn2ccc3cc(-c4c[nH]nc4C(F)(F)F)ccc3c2=O)c1 [Compound 130]
10 to 100 | 101 to 500 | Cc1nocc1-c1ccc2c(=O)n(Cc3cc(F)cc(C(=O)N[C@H]4C[C@H](O)C4)c3)ccc2c1 [Compound 138]
100 to 500 | 101 to 500 | Cc1nocc1-c1ccc2c(=O)n(Cc3cc(F)cc(C(=O)N[C@H]4CC[C@H](O)CC4)c3)ccc2c1 [Compound 139]
100 to 500 | 101 to 500 | Cc1nocc1-c1ccc2c(=O)n(Cc3cc(F)cc(C(=O)N[C@H]4CC[C@@H](O)CC4)c3)ccc2c1 [Compound 140]
100 to 500 | > 501 | CO[C@H]1CC[C@@H](NC(=O)c2cc(F)cc(Cn3ccc4cc(-c5conc5C)ccc4c3=O)c2)CC1 [Compound 142]
10 to 100 | 101 to 500 | Cc1nocc1-c1ccc2c(=O)n(Cc3cc(F)cc(C(=O)NCCN4CCOCC4)c3)ccc2c1 [Compound 143]
< 10 | 11 to 100 | Cc1nocc1-c1ccc2c(=O)n(Cc3cc(F)cc(C(=O)NCCN4CCN(C)CC4)c3)ccc2c1 [Compound 144]
10 to 100 | 101 to 500 | Cc1nocc1-c1ccc2c(=O)n(Cc3cc(F)cc(C(=O)NCC4COC4)c3)ccc2c1 [Compound 145]
< 10 | 11 to 100 | Cc1nocc1-c1ccc2c(=O)n(Cc3cc(F)cc(C(=O)NCC4CCN(C)CC4)c3)ccc2c1 [Compound 149]
< 10 | 101 to 500 | Cc1nocc1-c1ccc2c(=O)n(Cc3cc(F)cc(C(=O)NCC4CCN(CC(F)(F)F)CC4)c3)ccc2c1 [Compound 153]
< 10 | 101 to 500 | Cc1nocc1-c1ccc2c(=O)n(Cc3cc(F)cc(C(=O)NCC4CCN(C5COC5)CC4)c3)ccc2c1 [Compound 154]
< 10 | 11 to 100 | Cc1nocc1-c1ccc2c(=O)n(Cc3cc(F)cc(C(=O)Nc4ccn(C)n4)c3)ccc2c1 [Compound 156]
< 10 | 11 to 100 | Cc1nocc1-c1ccc2c(=O)n(Cc3cc(F)cc(C(=O)Nc4nc5c(s4)CCNC5)c3)ccc2c1 [Compound 157]
